The source of these data is US5510469A, “2-acyloxy-4-morpholinyl anthracyclines” (priority 1990, dated 1996).

≈ marks a conversion by molar mass, not a printed value. Where two headings read alike, the source gives them in different places.

One assay has as its system LoVo cells. Nature of the assay: Colony assay (cytotoxicity after 4 hr treatment), LoVo cells. It counts as cell-based. To be noted: Homo sapiens, read-out: IC50 (concentration inhibiting 50% colony growth), LoVo. The protocol:
(§1) 3'-deamino-3' 2-benzoyl-4-morpholinyl!doxorubicin (1a) was tested "in vitro" against LoVo and LoVo-resistant-doxorubicin (LoVo/DX) cells using a single cell plating technique after 4 hr treatment (Colony assay). The 50% inhibition concentration (IC50) was calculated using concentration-response curves. Compound 1a was tested in comparison with Doxorubicin.
(§2) Cytotoxicity after 4 hr treatment IC50 = ng/ml^(1)
(§3) ^(1) IC50 = concentration inhibiting 50% colony growth

Another assay deals with LoVo/DX cells. Description: Colony assay (cytotoxicity after 4 hr treatment), LoVo-resistant-doxorubicin (LoVo/DX) cells. It counts as cell-based. To be noted: for IC50: read-out: IC50 (concentration inhibiting 50% colony growth), LoVo/DX; for R.I. = Resistance Index = (IC50 LoVo/DX)/(IC50 LoVo): ratio LoVo/DX to LoVo. The procedure:
as §1, §2, §3
^(2) R.I. = Resistance Index = (IC50 LoVo/DX)/(IC50 LoVo)

Assay [1] concerns P388/DX (Johnson) Leukemias. Description: Antitumor activity in vivo against P388 murine leukemia resistant to Doxorubicin (P388/DX, Johnson). To be noted: P388/DX 10^5 cells/mouse i.v. in CDF mice; treatment on day 1; at optimal dose: 1a 1.2 mg/kg, Doxorubicin 13-16.9 mg/kg. The protocol: Antitumor activity against P388/DX
^(1) 10^5 cells/mouse (P388/DX, Johnson) transplanted i.v. in CDF
Treatment on day 1 after inoculation of tumor.
^(3) Median survival time; % over […] controls.
Compound 1a was evaluated "in vivo" against P388 murine Leukemias resistant to Doxorubicin, in comparison with Doxorubicin.

Regarding `COc1cccc2c1C(=O)c1c(O)c3c(c(O)c1C2=O)C[C@@](O)(C(=O)CO)C[C@@H]3O[C@H]1C[C@H](N)[C@H](O)[C@H](C)O1` [Doxorubicin, doxorubicin], the IC50 in the assay with LoVo cells (LoVo cells, 4 hr treatment, colony assay) came out at 0.06 µg/mL (≈ 0.11 µM); in the assay on LoVo/DX cells (LoVo/DX cells, 4 hr treatment, colony assay), 2.16 µg/mL (≈ 3.97 µM). Further, the “R.I. = Resistance Index = (IC50 LoVo/DX)/(IC50 LoVo)” value in the assay on LoVo/DX cells (4 hr treatment) amounted to 36. The “T/C % (median survival time; % over treated controls)” value in assay [1] is listed as 86-100%.
As to `COc1cccc2c1C(=O)c1c(O)c3c(c(O)c1C2=O)C[C@@](O)(C(=O)CO)C[C@@H]3O[C@H]1C[C@H](N2CCOC(OC(=O)c3ccccc3)C2)[C@H](O)[C@H](C)O1` (some centres unmarked) [Compound 1a], the IC50 in the assay on LoVo cells (LoVo, 4 h) turned out to be 0.0069 µg/mL (≈ 0.0094 µM); in the assay on LoVo/DX cells (LoVo/DX, 4 h) it was 0.027 µg/mL (≈ 0.0368 µM). In addition, the “R.I. = Resistance Index = (IC50 LoVo/DX)/(IC50 LoVo)” value in the assay with LoVo/DX cells (4 hr treatment) worked out at 3.9. The “T/C % (median survival time; % over treated controls)” value in assay [1] is reported as 175%.
